Target: T1, pDSIP (Oryctolagus cuniculus, UniProt P01158)
T1 construct: purchased SynPep Corporation
Assay: Total phosphopeptide detection on microarray with binding solution
Settings: 1 μM Compound 2, 1 μM GaCl3, pH 4.0
Experimental: (A) Three pairs of peptides, the phosphorylated and the non-phosporylated forms of Kemptide, pp60 c-src and DSIP, were arrayed on to HydroGel coated slides (Perkin Elmer) from a source plate (384-well) with a concentration of 0.95 μg/ml-0.5 mg/ml peptide in water, using the BioChip Arrayer™ (Perkin Elmer) as described in Example 20. For specific detection of the phosphopeptides on the array, the slides were incubated for 45 minutes on a rotisserie in a binding solution comprising 1 μM Compound 2, in buffer containing 0.5 M NaCl, 20% 1,2 propanediol, 1 μM GaCl3, and 0.05 M sodium acetate, pH 4.0. Slides were then washed three times for 15 minutes on a rotisserie in 0.05 M sodium acetate, pH 4.0, containing 4% acetonitrile followed by a 15 minute water wash. Slides were then spun briefly in a microarray high-speed centrifuge affixed with a rotor with a slide holder (Telechem) at ˜6000 rpm to remove excess liquid. After slides were dry, the arrays were imaged using the ScanArray® 5000 XL Microarray Analysis System (Packard Instrument Co., Meriden, Conn.) using the 543.5 nm laser and 570 nm emission filter. […] Using the 543.5 nm excitation and 570 nm emission filter, there was no signal detected. Using the 632.8 nm excitation and 670 nm emission filter, pp60 c-src (pY) was specifically detected to a sensitivity of 5.2 pg.

amount specifically labeled on microarray: 1.3 to 2.6 pg
Substance: Rhod-5F [Compound 2]

From patent US7445894B2, “Compositions and methods for detection and isolation of phosphorylated molecules” (priority 2002, dated 2008)
